Each block holds one molecule with its values, some of them ahead of it.
What was measured:
[1] = Dose–response curve of purified […]s with S-β-phenylalanine; type: biochemical
Description: (§1) Fig. 4 Engineering ligand specificity of GrsA-PheA for generating […]s. a The selectivity-conferring code of Phe and Leu A domains. b–f Dose–response curve of purified […]s with increasing concentrations of ligands in 100 mM Tris-HCl buffer (pH=7.5). All data shown are means ± S.D. (n = 3 biologically independent samples). g A series of […] reactions was tested to show the […]’s specificity with 20 proteinogenic amino acids. The values on the heatmap represent the ΔF/F0 value normalized to each […]’s maximal ΔF/F0 value ((ΔF/F0)/maximal ΔF/F0). The concentrations of 20 amino acids were 100 μM. The color indicates the average value of three independent biological replicates after 15 min. All data shown are means ± S.D. (n = 3 biologically independent samples). Source data are provided as a Source data file.
(§2) The study conducted dose–response curve, substrate specificity, and fluorescent spectrum analyses in 100-mM Tris buffer (pH = 7.5), while pH stability experiments were performed in 100-mM Tris buffer at three different pH values (6.5, 7.5, and 8.5) at room temperature. […] protein at a concentration of 0.75 μM, various small molecule concentrations, 1 mM ATP, and 2.5 mM MgCl2 were used in the experiments. Fluorescent signals were detected using a Microplate Reader (Synergy H4, Bio Tek) at an excitation/emission wavelength of 460 nm/510 nm or 480 nm/510 nm. The dose-response curve was determined immediately after the addition of the analyte. The total duration of the measurement was 15 min, with readings taken at one-minute intervals. The dose-response curve was plotted using the fluorescence values obtained after achieving stability in the fluorescence signal. The dose-response curves were fitted using the logistic model LOGISTIC5 available in Origin 2021, which could provide a more adequate fit to asymmetric dose-response data[62],[63]. Excitation spectra were scanned from 300 to 540 nm with a step size of 5 nm, and the emission wavelength was set to 560 nm. Emission spectra were scanned from 470 to 700 nm with a step size of 5 nm, and the excitation wavelength was set to 450 nm. The thermal stability of […] was analyzed using the UNcle multifunctional protein stability analysis system. Measurements were performed in 20 mM MOPS buffer with 2 mM DTT at a sample concentration of 1 mg/mL. Absolute fluorescence quantum yields were measured using an absolute photoluminescence quantum yield spectrometer (FS5, Edinburgh).

[2] = Substrate (ligand) specificity of […]s; type: biochemical; settings: Supplementary Fig. 3 c; substrate specificity
Description: as §1
Ligand specificity is an important biosensors feature. Generally, the NRPS A domains have high specificity for their substrates because they are the first “gatekeeper” of NRPSs and ensure that the correct monomers are activated and thioesterified[32],[33]. Therefore, we speculated that this property would be inherited by our […]s because the ligand-binding pockets were unchanged during the […] creation process. Twenty proteinogenic amino acids were used to test the ligand specificity of […]s. […] We also investigated the dependence of […]s on Mg^2+ and ATP (Supplementary Fig. 4). […] This phenomenon corroborates with the distinct conformational changes observed in Hinge A of Nt4CL2 (Mg^2++ATP) (PDB ID: 5BSM) and Nt4CL2 (Coumaroyl-AMP) (PDB ID: 5BST) reported in the literature (Supplementary Fig. 4k), where the direction of motion in hinge A differs. […] During the determination of quantum yield, we observed that the absolute quantum yield of the […] variants ranged from 0.3 to 0.6 upon addition of the respective substrates, which show no significant difference with that reported in literature. The specific values are provided in Supplementary Table 2.
as §2

[3] = Dose–response curve of purified […] with R-β-phenylalanine; type: biochemical
Description: as §1, §2

[4] = Dose–response curve of purified […] with glutamic acid; type: biochemical; parameters: key: normalized ΔF/F0 (fluorescence change relative to baseline F0)
Description: (§3) Fig. 3 Dose–response curves and fluorescence spectrums of […]s. a, c, e, g, i, k Dose–response curve of purified […]s with increasing concentrations of ligand in 100 mM Tris-HCl buffer (pH=7.5). The normalized ΔF/F0 value increased after ligand binding. All data shown are mean ± S.D. (n = 3 biologically independent samples). b, d, f, h, j, l The fluorescence spectra of […]s changed as the ligand concentration increased. All data shown are mean ± S.D. (n = 3 biologically independent samples). Source data are provided as a Source data file.
as §2

[5] = Fluorescence spectra / excitation wavelength scan of […]s; type: physicochemical; settings: Wavelength 300 nm
Description: Fig. 3 Dose–response curves and fluorescence spectrums of […]s. a, c, e, g, i, k Dose–response curve of purified […]s with increasing concentrations of ligand in 100 mM Tris-HCl buffer (pH=7.5). […] All data shown are mean ± S.D. (n = 3 biologically independent samples). Source data are provided as a Source data file.
as §2

[6] = biological target: GECFINDER-SβF; experiment: Fluorescence dose-response of purified binding-pocket-engineered sensors (0.75 uM) in 100 mM Tris-HCl pH 7.5, room temperature, 1 mM ATP, 2.5 mM MgCl2, excitation 460 or 480 nm, emission 510 nm; logistic five-parameter fit.; type: biochemical; settings: n = 3
Description: as §1, §2

[7] = Response of purified […] to proline; type: biochemical
Description: as §3, §2

Structure (SMILES): N[C@@H](CC(=O)O)c1ccccc1 [S-β-Phe]
AVE, dose-response Fig. 4 b ([1]; substrate S-β-Phe 0.0001 μM): -0.0002792
AVE, dose-response Fig. 4 b ([1]; substrate S-β-Phe 0.001 μM): -0.0008239
AVE, dose-response Fig. 4 b ([1]; substrate S-β-Phe 0.01 μM): -0.003663
AVE, dose-response Fig. 4 b ([1]; substrate S-β-Phe 0.1 μM): -0.01739
AVE, dose-response Fig. 4 b ([1]; substrate S-β-Phe 1 μM): 0.02113
AVE, dose-response Fig. 4 b ([1]; substrate S-β-Phe 10 μM): 0.3498
AVE, dose-response Fig. 4 b ([1]; substrate S-β-Phe 50 μM): 0.6956
AVE, dose-response Fig. 4 b ([1]; substrate S-β-Phe 100 μM): 0.8621
AVE, dose-response Fig. 4 b ([1]; substrate S-β-Phe 500 μM): 0.9305
AVE, dose-response Fig. 4 b ([1]; substrate S-β-Phe 1000 μM): 0.8832
AVE, dose-response Fig. 4 b ([1]; substrate S-β-Phe 5000 μM): 0.7695
AVE, dose-response Fig. 4 b ([1]; substrate S-β-Phe 10000 μM): 0.7514
AVE, dose-response Fig. 4 f ([1]; substrate S-β-Phe 0.0001 μM): -0.0001186
AVE, dose-response Fig. 4 f ([1]; substrate S-β-Phe 0.001 μM): -0.005617
AVE, dose-response Fig. 4 f ([1]; substrate S-β-Phe 0.01 μM): 0.008482
AVE, dose-response Fig. 4 f ([1]; substrate S-β-Phe 0.1 μM): 0.09012
AVE, dose-response Fig. 4 f ([1]; substrate S-β-Phe 1 μM): 0.4944
AVE, dose-response Fig. 4 f ([1]; substrate S-β-Phe 10 μM): 1.228
AVE, dose-response Fig. 4 f ([1]; substrate S-β-Phe 50 μM): 1.751
AVE, dose-response Fig. 4 f ([1]; substrate S-β-Phe 100 μM): 1.939
AVE, dose-response Fig. 4 f ([1]; substrate S-β-Phe 500 μM): 2.2005
AVE, dose-response Fig. 4 f ([1]; substrate S-β-Phe 1000 μM): 2.208
AVE, dose-response Fig. 4 f ([1]; substrate S-β-Phe 5000 μM): 2.26
AVE, dose-response Fig. 4 f ([1]; substrate S-β-Phe 10000 μM): 2.258
fluorescence response of GECFINDER to each substrate, AVE of 3 repeats [2]: 2.126

Structure (SMILES): N[C@H](CC(=O)O)c1ccccc1 [R-β-Phe]
AVE, dose-response Fig. 4 f ([3]; substrate R-β-Phe 0.0001 μM): -0.0001175
AVE, dose-response Fig. 4 f ([3]; substrate R-β-Phe 0.001 μM): -0.003533
AVE, dose-response Fig. 4 f ([3]; substrate R-β-Phe 0.01 μM): -3.814e-5
AVE, dose-response Fig. 4 f ([3]; substrate R-β-Phe 0.1 μM): 0.008066
AVE, dose-response Fig. 4 f ([3]; substrate R-β-Phe 1 μM): 0.06811
AVE, dose-response Fig. 4 f ([3]; substrate R-β-Phe 5 μM): 0.06226
AVE, dose-response Fig. 4 f ([3]; substrate R-β-Phe 10 μM): 0.1204
AVE, dose-response Fig. 4 f ([3]; substrate R-β-Phe 50 μM): 0.3026
AVE, dose-response Fig. 4 f ([3]; substrate R-β-Phe 100 μM): 0.3923
AVE, dose-response Fig. 4 f ([3]; substrate R-β-Phe 500 μM): 0.5534
AVE, dose-response Fig. 4 f ([3]; substrate R-β-Phe 1000 μM): 0.5949
AVE, dose-response Fig. 4 f ([3]; substrate R-β-Phe 2000 μM): 0.5892
fluorescence response of GECFINDER to each substrate, AVE of 3 repeats [2]: 0.4936

Structure (SMILES): N[C@@H](CCC(=O)O)C(=O)O [Glu]
Dose-response, AVE of Repeat 1-3 (Fig. 3 e) ([4]; Glu 0.1 μM): 0
Dose-response, AVE of Repeat 1-3 (Fig. 3 e) ([4]; Glu 1 μM): 0.02632
Dose-response, AVE of Repeat 1-3 (Fig. 3 e) ([4]; Glu 2 μM): 0.0378
Dose-response, AVE of Repeat 1-3 (Fig. 3 e) ([4]; Glu 5 μM): 0.1147
Dose-response, AVE of Repeat 1-3 (Fig. 3 e) ([4]; Glu 10 μM): 0.1961
Dose-response, AVE of Repeat 1-3 (Fig. 3 e) ([4]; Glu 20 μM): 0.322
Dose-response, AVE of Repeat 1-3 (Fig. 3 e) ([4]; Glu 50 μM): 0.5379
Dose-response, AVE of Repeat 1-3 (Fig. 3 e) ([4]; Glu 100 μM): 0.6984
Dose-response, AVE of Repeat 1-3 (Fig. 3 e) ([4]; Glu 200 μM): 0.8758
Dose-response, AVE of Repeat 1-3 (Fig. 3 e) ([4]; Glu 500 μM): 1.002
Dose-response, AVE of Repeat 1-3 (Fig. 3 e) ([4]; Glu 750 μM): 0.9874
Dose-response, AVE of Repeat 1-3 (Fig. 3 e) ([4]; Glu 1000 μM): 0.9487
fluorescence response of GECFINDER to each substrate, AVE of 3 repeats [2]: -0.007518
Wavelength scan, AVE of Repeat 1-3 (Fig. 3 f) ([5]; 0.1 μM Glu): 86.3333
Wavelength scan, AVE of Repeat 1-3 (Fig. 3 f) ([5]; 5 μM Glu): 106
Wavelength scan, AVE of Repeat 1-3 (Fig. 3 f) ([5]; 500 μM Glu): 120.667

EC50 [6]: 54.6 ± 7.66 µM
Structure (SMILES): N[C@H](CC(=O)O)c1ccccc1 [R-β-Phe, R-β-phenylalanine]

Structure (SMILES): O=C(O)[C@@H]1CCCN1 [Pro]
Dose-response, AVE of Repeat 1-3 (Fig. 3 g) ([7]; Pro 0.0002 μM): -7.17e-17
Dose-response, AVE of Repeat 1-3 (Fig. 3 g) ([7]; Pro 0.002 μM): 0.0174
Dose-response, AVE of Repeat 1-3 (Fig. 3 g) ([7]; Pro 0.02 μM): 0.02154
Dose-response, AVE of Repeat 1-3 (Fig. 3 g) ([7]; Pro 0.2 μM): 0.03875
Dose-response, AVE of Repeat 1-3 (Fig. 3 g) ([7]; Pro 2 μM): 0.04783
Dose-response, AVE of Repeat 1-3 (Fig. 3 g) ([7]; Pro 20 μM): 0.05475
Dose-response, AVE of Repeat 1-3 (Fig. 3 g) ([7]; Pro 100 μM): 0.06466
Dose-response, AVE of Repeat 1-3 (Fig. 3 g) ([7]; Pro 200 μM): 0.07263
Dose-response, AVE of Repeat 1-3 (Fig. 3 g) ([7]; Pro 500 μM): 0.09025
Dose-response, AVE of Repeat 1-3 (Fig. 3 g) ([7]; Pro 1000 μM): 0.09711
Dose-response, AVE of Repeat 1-3 (Fig. 3 g) ([7]; Pro 2000 μM): 0.09414
Dose-response, AVE of Repeat 1-3 (Fig. 3 g) ([7]; Pro 4000 μM): 0.08171
fluorescence response of GECFINDER to each substrate, AVE of 3 repeats [2]: -0.002038
Wavelength scan, AVE of Repeat 1-3 (Fig. 3 h) ([5]; 0.0002 μM Pro): 1526
Wavelength scan, AVE of Repeat 1-3 (Fig. 3 h) ([5]; 20 μM Pro): 1565
Wavelength scan, AVE of Repeat 1-3 (Fig. 3 h) ([5]; 2000 μM Pro): 1543.33
